Data reported in patent US5571820A, “Heterocyclic compound” (Taisho Pharmaceutical Co., Ltd., priority 1992, dated 1996).

Key:
[1] = Mouse single administration (acute toxicity); assay type: in vivo; settings: single oral administration
Text: Toxicity of the compound represented by formula (1) which is the effective ingredient of the pharmaceutical composition of the present invention was examined in terms of toxicity by mouse single administration (acute toxicity).

[2] = Toxicity on consecutive 14-day oral administration in rat; assay type: in vivo, male Wistar rats
Protocol: Experiment 6. Toxicity on Consecutive 14-day Oral Administration in Rat
Toxicity of consecutive oral administration was investigated by oral administration of male Wistar rats of 5 weeks age, weighing 124 to 140 g and seven rats forming one group, orally received the compound of the present invention for 14 consecutive days in a daily dose of 100 mg/kg or 250 mg/kg once a day. During the course of administration, general conditions were observed and the body weight was measured. At the time when the administration was completed, hematological inspection, hematochemical inspection, urinalysis, anatomical finding, organ weight measurement and pathohistological inspection were performed.

[3] = system: gastric motility; assay: Activity on gastric motility in rat (balloon in stomach, conscious); assay type: in vivo, male Wistar rats; settings: for Contraction frequency (% of value prior to administration) / Motility index (% of value prior to administration): 1 mg/kg i.p.
Protocol: Experiment 2. Activity on Gastric Motility in Rat Male Wistar rats weighing 250 to 350 g were fasted for 18 hours and then provided for experiment. The abdominal cavity was opened under ether anesthesia and a rubber balloon was inserted into the stomach via the forestomach. A cannula for administering a drug was put in the peritoneal cavity. After recovery from the anesthesia, the balloon was connected to low pressure transducers to record gastric motility in the conscious state. The compound of the present invention was suspended in physiological saline and the suspension was intraperitoneally administered. Contraction frequency and motility index are shown in terms of a proportion (%) of a mean value calculated for 15 minutes to a value prior to administration (0 minute). The value for 0 minute was made a mean value for 30 minutes prior to the administration.

[4] = target: T1, serotonin 4 receptor (Cavia porcellus, UniProt O70528); assay: Serotonin 4 receptor stimulating activity: twitch responses of electrically stimulated ileum longitudinal muscle strips; assay type: cell-based, guinea pig (Hartley)
T1 construct: from tissue; host or cells: ileum longitudinal muscle strips of Hartley guinea pig
Text: Experiment 1. Serotonin 4 Receptor Stimulating Activity Compounds Tested
Twitch responses were examined in longitudinal muscle strips of guinea pig by a modification of the method described in The Journal of Pharmacology and Experimental Therapeutics, 252, 1378, 1990.
From Hartley guinea pigs, a section of ileum 25 cm in length and proximal to the ileocecal junction was removed. The longitudinal muscle strips obtained from two segments of ileum about 4 cm each in length were used for this experiment. The longitudinal muscle strips were suspended in Krebs' solution at 32° to 34° C. and bubbled with 95% O2 and 5% CO2 under a load of about 0.8 g. Twitch responses were recorded under electrical stimulation of 0.2 Hz, 1 msec pulse duration, using force displacement transducers. The longitudinal muscle strips, stimulated at supramaximal voltage, were allowed to equilibrate for about an hour. […] The test was carried out by exposing the strips to cumulative additions of agonist at least at 45-minute intervals.

[5] = system: gastrointestinal tract motor action; assay: Activity on gastrointestinal motor in dogs (strain gauge force transducers, conscious); assay type: in vivo, Beagle dogs of both sexes; settings: for Motility index (% of value prior to administration): gastric motor action after feeding
Protocol: Experiment 3. Activity on Gastrointestinal Motor in Dogs The activity was determined by a modification of the method described in Gastroenterologia Japonica, 12, 275, 1977. Beagle dogs of both sexes weighing 9 to 15 kg were anesthetized with sodium pentobarbital and strain gauge force transducers were sutured on five (5) portions, i.e., for determining antral, duodenum, jejunal, ileal and colonal motor responses. A cannula for administering a drug was mounted persistently into the jugular vein. After recovery of the surgery, motor responses at those portions on the gastrointestinal tract in both during a fasting period and after feeding were determined in the conscious dogs. The compound of the present invention was administered by dissolving the compound in 5% lactate saline aqueous solution for intravenous injection and for oral administration by suspending the compound in 5% gum arabic aqueous solution. The motor index is shown in terms of a proportion (%) of a mean value calculated for 15 minutes to a value prior to administration (0 minute). The value for 0 minute was made a mean value for 30 minutes prior to the administration. Results

[6] = system: intestinal transit; assay: Activity on intestinal transit in mice (carbon powder); assay type: in vivo, male ICR mice; settings: for Intestinal transit (%): moving rate calculated for control animal
Protocol: Experiment 5. Activity on Intestinal Transit in Mice
The activity was determined by a modification of the method described in YAKURI-TO-CHIRYO, 10, 195, 1982.
Male ICR mice weighing 20 to 30 g were used which were deprived of food for 24 hours. A suspension containing 5% carbon powder gum arabic was orally administered to the animal in a dose of 1 ml 15 minutes after subcutaneous administration or 30 minutes after oral administration, of drugs. The intestinal tract was removed 20 minutes after. The entire length of the intestinal tract and the distance of the carbon powders moved were measured, and a moving rate was calculated for control animal.

[7] = 250 mg/kg daily, oral, 14 consecutive days
[8] = 10 min after administration, N = 4
[9] = 30 min after administration, N = 4
[10] = 40 min after administration, N = 4
[11] = 50 min after administration, N = 4
[12] = 60 min after administration, N = 4

T1 sequence (O70528 whole entry): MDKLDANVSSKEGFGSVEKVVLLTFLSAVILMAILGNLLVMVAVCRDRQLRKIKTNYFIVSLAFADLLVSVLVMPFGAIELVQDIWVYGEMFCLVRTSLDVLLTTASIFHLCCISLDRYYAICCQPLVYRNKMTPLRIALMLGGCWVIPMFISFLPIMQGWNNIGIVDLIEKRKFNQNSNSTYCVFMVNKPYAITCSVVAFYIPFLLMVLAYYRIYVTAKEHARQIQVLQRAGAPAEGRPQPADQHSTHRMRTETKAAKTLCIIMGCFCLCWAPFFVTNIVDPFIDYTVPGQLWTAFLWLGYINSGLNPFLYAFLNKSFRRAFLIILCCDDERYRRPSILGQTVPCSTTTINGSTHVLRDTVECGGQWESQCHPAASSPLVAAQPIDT

## CC(C)n1c(=O)c(C(=O)N[C@H]2C[C@H]3CC[C@@H](C2)N3C)cc2ccccc21 [Compound 1, endo-N-(8-methyl-8-azabicyclo[3.2.1]oct-3-yl)-1-isopropyl-2(1H)-quinolone-3-carboxamide]
[1]
  minimum lethal dose: more than 125 mg/kg
[2]; 100 mg/kg daily, oral, 14 consecutive days
  toxic change: no toxic change was noted
[2]; [7]
  body weight: prevention of body weight increase was noted
  secondary changes in organs (liver, thymus, adrenogenital organ, adrenal, etc.): secondary changes accompanied by aggravation of general conditions were observed in the liver, thymus, adrenogenital organ, adrenal, etc.
[2]; 14-day oral, taking into account pharmacological activities
  overall toxicity: the toxicity is reasonably assumed to be weak
[3]; [8]
  Contraction frequency (% of value prior to administration): 182.3%
  Motility index (% of value prior to administration): 169.3%
[3]; 20 min after administration, N = 4
  Motility index (% of value prior to administration): 188.1%
[3]; 20 min after administration, N = 4, *: P < 0.05
  Contraction frequency (% of value prior to administration): 243.5%
[3]; [9]
  Contraction frequency (% of value prior to administration): 187.0%
  Motility index (% of value prior to administration): 144.2%
[3]; [10]
  Contraction frequency (% of value prior to administration): 134.7%
  Motility index (% of value prior to administration): 83.3%
[3]; [11]
  Contraction frequency (% of value prior to administration): 134.9%
  Motility index (% of value prior to administration): 88.8%
[3]; [12]
  Contraction frequency (% of value prior to administration): 141.6%
  Motility index (% of value prior to administration): 108.8%
[3]; 1 mg/kg, i.p.
  effect on gastric motility: accelerated the gastric motility
[4]
  EC50: 21.4 nM
[4]; in words, from Table 2
  serotonin 4 receptor stimulating activity, comparison with Compounds 2 to 7: much more potent serotonin 4 receptor stimulating activity than any of the other compounds
[5]; 0.3 mg/kg intravenous, 15 min, N = 3
  Motility index (% of value prior to administration): 371.4%
[5]; 0.3 mg/kg intravenous, 30 min, N = 3
  Motility index (% of value prior to administration): 322.6%
[5]; 0.3 mg/kg intravenous, 45 min, N = 3, *: P < 0.05
  Motility index (% of value prior to administration): 282.3%
[5]; 0.3 mg/kg intravenous, 60 min, N = 3, *: P < 0.05
  Motility index (% of value prior to administration): 261.1%
[5]; 0.3 mg/kg intravenous, 75 min, N = 3, **: P < 0.01
  Motility index (% of value prior to administration): 281.9%
[5]; 0.3 mg/kg intravenous, 90 min, N = 3, *: P < 0.05
  Motility index (% of value prior to administration): 262.1%
[5]; 0.3 mg/kg intravenous, 105 min, N = 3, *: P < 0.05
  Motility index (% of value prior to administration): 242.9%
[5]; 0.3 mg/kg intravenous, 120 min, N = 3
  Motility index (% of value prior to administration): 195.2%
[5]; 1 mg/kg oral, 15 min, N = 3
  Motility index (% of value prior to administration): 116.4%
[5]; 1 mg/kg oral, 30 min, N = 3
  Motility index (% of value prior to administration): 193.5%
[5]; 1 mg/kg oral, 45 min, N = 3, *: P < 0.05
  Motility index (% of value prior to administration): 191.4%
[5]; 1 mg/kg oral, 60 min, N = 3, **: P < 0.01
  Motility index (% of value prior to administration): 206.9%
[5]; 1 mg/kg oral, 75 min, N = 3, *: P < 0.05
  Motility index (% of value prior to administration): 202.2%
[5]; 1 mg/kg oral, 90 min, N = 3, *: P < 0.05
  Motility index (% of value prior to administration): 192.5%
[5]; 1 mg/kg oral, 105 min, N = 3, *: P < 0.05
  Motility index (% of value prior to administration): 207.3%
[5]; 1 mg/kg oral, 120 min, N = 3
  Motility index (% of value prior to administration): 194.9%
[5]; 1 mg/kg oral, 180 min, N = 3
  Motility index (% of value prior to administration): 195.8%
[5]; 1 mg/kg oral, 210 min, N = 3
  Motility index (% of value prior to administration): 176.2%
[5]; 1 mg/kg oral, 240 min, N = 3
  Motility index (% of value prior to administration): 182.8%
[5]; intravenous and oral, both during fasting period and after feeding
  effect on the motor action of the gastrointestinal tract: showed acceleration on the motor action of the gastrointestinal tract
[6]; oral and subcutaneous
  effect on intestinal transit: accelerated the intestinal transit
[6]; p.o. 1 mg/kg, 5 cases
  Intestinal transit (%): 100.6%
[6]; p.o. 3 mg/kg, 5 cases
  Intestinal transit (%): 121.4%
[6]; p.o. 10 mg/kg, 6 cases
  Intestinal transit (%): 120.4%
[6]; s.c. 1 mg/kg, 5 cases
  Intestinal transit (%): 116.6%
[6]; s.c. 3 mg/kg, 4 cases
  Intestinal transit (%): 117.8%
[6]; s.c. 10 mg/kg, 6 cases, **: P < 0.01
  Intestinal transit (%): 138.3%
